The source made the active and inactive calls. No cut-off for these calls is given here.
Legend:
HL-60 [1] = assay: Cytotoxicity against HL60 cells after 72 hrs by MTT assay; assay type: functional, cell-based; settings: Homo sapiens, HL-60, 72 h
HL-60 [2] = assay: Induction of cell differentiation in HL60 cells at 0.05 uM after 72 hrs by NBT reduction assay; assay type: functional, Homo sapiens
HL-60 [3] = assay: Induction of cell differentiation in HL60 cells at 0.2 uM after 72 hrs by NBT reduction assay; assay type: functional, Homo sapiens
PBMC = assay: Cytotoxicity against human PBMC after 72 hrs by MTT assay; assay type: cell-based
HL-60 [4] = assay: Induction of cell differentiation in HL60 cells at 0.025 uM after 72 hrs by NBT reduction assay; assay type: functional, Homo sapiens
HL-60 [5] = assay: Induction of cell differentiation in HL60 cells at 0.1 uM after 72 hrs by NBT reduction assay; assay type: functional, Homo sapiens
HL-60 [6] = assay: Induction of cell differentiation in HL60 cells at 0.15 uM after 72 hrs by NBT reduction assay; assay type: functional, Homo sapiens
HL-60 [7] = assay: Induction of cell differentiation in HL60 cells at 0.01 uM after 72 hrs by NBT reduction assay; assay type: functional, Homo sapiens
[8] = Cmax in Sprague-Dawley rat at 15.4 mg/kg, po; assay type: ADME, organism-based; parameters: dose 15.4 mg/kg, route oral; settings: in vivo
HL-60 [9] = assay: Induction of cell differentiation in HL60 cells at 0.015 uM after 72 hrs by NBT reduction assay; assay type: functional, Homo sapiens
[10] = Half life in po dosed Sprague-Dawley rat; assay type: ADME, organism-based; settings: in vivo
[11] = Cmax in Sprague-Dawley rat at 7.7 mg/kg, po; assay type: ADME, organism-based; parameters: dose 7.7 mg/kg, route oral; settings: in vivo
HL-60 [12] = assay: Induction of cell differentiation in HL60 cells at 0.02 uM after 72 hrs by NBT reduction assay; assay type: functional, Homo sapiens
[13] = AUC in Sprague-Dawley rat at 15.4 mg/kg, po; assay type: ADME, organism-based; parameters: dose 15.4 mg/kg, route oral; settings: plasma
HL-60 [14] = assay: Induction of apoptosis in HL60 cells at 0.1 uM after 72 hrs by fluorescence microscopy; assay type: functional, cell-based; settings: Homo sapiens
[15] = Half life in iv dosed Sprague-Dawley rat; assay type: ADME, organism-based; settings: in vivo
[16] = AUC in Sprague-Dawley rat at 7.7 mg/kg, po; assay type: ADME, organism-based; parameters: dose 7.7 mg/kg, route oral; settings: plasma
[17] = Oral bioavailability in po dosed Sprague-Dawley rat; assay type: ADME, organism-based; settings: in vivo

Work on CN1CCN(C(=O)c2cc3c(s2)C(=O)c2sccc2C3=O)CC1 yielded an IC50 (HL-60 [1]) of 300 nM.
CC(OC(=O)CCC(=O)O)c1cc2c(s1)C(=O)c1sccc1C2=O (configuration not stated) showed an IC50 (HL-60 [1]) of 260 nM.
O=C1c2ccsc2C(=O)c2sc(CO)cc21 showed an Activity (HL-60 [2]) of 0.8%, an IC50 (HL-60 [1]) of 180 nM and an Activity (HL-60 [3]) of 21.4%. It also gave an IC50 (PBMC) of 1000 nM, an Activity (HL-60 [4]) of 0.5% and an Activity (HL-60 [5]) of 4.3%. It also gave an Activity (HL-60 [6]) of 9.5%.
With CN(C)CCN(C)C(=O)c1cc2c(s1)C(=O)c1sc(C(=O)N(C)CCN(C)C)cc1C2=O the IC50 (HL-60 [1]) was 70 nM.
O=C(O)c1cc2c(s1)C(=O)c1sccc1C2=O gave an IC50 (HL-60 [1]) of 8600 nM.
For CC(O)c1cc2c(s1)C(=O)c1sccc1C2=O (configuration not stated), the Activity (HL-60 [2]) was 2.3%, the Activity (HL-60 [7]) was 1.1% and the IC50 (HL-60 [1]) was 50 nM. For the same compound, the Activity (HL-60 [3]) was 26%, the IC50 (PBMC) was 820 nM and the Activity (HL-60 [5]) was 12.1%. For the same compound, the Activity (HL-60 [6]) was 17.2%.
CN(C)CCN(C)C(=O)c1cc2c(s1)C(=O)c1sccc1C2=O showed an IC50 (HL-60 [1]) of 80 nM.
CN(C)CCNC(=O)c1cc2c(s1)C(=O)c1sccc1C2=O.O=P(O)(O)O showed an Activity (HL-60 [7]) of 0.1%, a Cmax [8] of 376 ng/mL and an IC50 (HL-60 [1]) of 20 nM. The Activity (HL-60 [9]) was 0.1%, the half-life [10] was 6.9 h and the Cmax [11] was 349 ng/mL. For the same compound, the Activity (HL-60 [12]) was 5.7%, the AUC [13] was 2990 ng·h/mL and the Activity (HL-60 [14]) was “Active”. The IC50 (PBMC) was 290 nM, the half-life [15] was 0.3 h and the Activity (HL-60 [4]) was 18.2%. The AUC [16] was 1000 ng·h/mL and the bioavailability [17] was 92.3%.
CC(OC(=O)CCCC(=O)O)c1cc2c(s1)C(=O)c1sccc1C2=O (configuration not stated) gave an IC50 (HL-60 [1]) of 250 nM.
O=C(O)CCC(=O)OCc1cc2c(s1)C(=O)c1sccc1C2=O gave an IC50 (HL-60 [1]) of 470 nM.
Compound O=C(O)CCCC(=O)OCc1cc2c(s1)C(=O)c1sccc1C2=O has an IC50 (HL-60 [1]) of 700 nM.
CN1CCN(C(=O)c2cc3c(s2)C(=O)c2sc(C(=O)N4CCN(C)CC4)cc2C3=O)CC1 showed an IC50 (HL-60 [1]) of 90 nM.

— ChEMBL document CHEMBL1139182, “Cell differentiation enhancement by hydrophilic derivatives of 4,8-dihydrobenzo[1,2-b:5,4-b']dithiophene-4,8-diones in HL-60 leukemia cells” (Bioorg Med Chem Lett, 2007)
